Measurements published in patent publication US8128967B2, “Polyphenol coxib combinations and methods” (Mitsui Norin Co., Ltd., priority 2005, dated 2012).
Several values for one entry are separate records, joined by “and”; a condition that tells them apart may be missing. Equal values may be shown once.

Experiments:
[1] = test system: cisplatin-induced lung tumors; assay: Experiment 1: Celecoxib with EGCg or Polyphenon E on cisplatin-induced lung tumor incidence and multiplicity; type: in vivo, A/J mice; conditions: for INCIDENCE: CDDP control 0.9; for MULTIPLICITY: CDDP control 2.2
Description: Similarly, CDDP+Cox (number)+Polyphenon E refers to animals treated with Cisplatin, Polyphenon E, and Celecoxib. Each group of animals had 10 mice.
As control, A/J mice were treated with CDDP using standard protocols well known in the art and as further described below.
Treatment with EGCg alone (see below) was performed in the animals of group 2. […] Low-dose and high-dose effects of Celecoxib were tested in groups 3 and 4 in which the COX-2 inhibitor was mixed with the diet at a concentration of either 150 ppm or 1,500 ppm as indicated by the numbers in parentheses (see below).
The effect of EGCg in combination with high- and low-dose COX-2 inhibitor was tested in groups 5 and 6 (see below). […] For these experiments, EGCg was dissolved in drinking water at 0.1% (wt/vol) concentration.
The effect of Polyphenon E in combination with high- and low-dose COX-2 inhibitor was tested in groups 7 and 8 (see below). […] For these experiments, Polyphenon E was dissolved in drinking water at 0.17% concentration.

[2] = test system: cisplatin-induced lung tumors; assay: Experiment 2: celecoxib with EGCG or polyphenon E on cisplatin-induced lung tumor incidence and multiplicity; type: in vivo, female A/J mice; conditions: 0.1% EGCG or 0.17% polyphenon E in drinking water where combined; for INCIDENCE: killed at 26 weeks, CDDP control 95%
[3] = Experiment 2: cisplatin-induced weight loss; conditions: low-dose celecoxib; p<0.05
Description: In this study, female A/J mice (4 weeks old) were divided into seven groups: group 1, no treatment; group 2, low-dose celecoxib (150 mg/kg diet); group 3, high-dose celecoxib (1500 mg/kg diet); group 4, 0.1% EGCG+low-dose celecoxib treatment (150 mg/kg diet); group 5, 0.1% EGCG+high-dose celecoxib (1500 mg/kg diet); group 6, 0.17% polyphenon E+low-dose celecoxib (150 mg/kg diet); group 7, 0.17% polyphenon E+high-dose celecoxib (1500 mg/kg diet). All mice were treated with cisplatin (1.62 mg/kg of body weight, i.p.) once a week for 10 weeks from 7 to 16 weeks of age. Mice in groups 2, 3, 4, 5, 6, and 7 were exclusively fed experimental diet prepared by mixing celecoxib. EGCG and polyphenon E were provided in drinking water. Seven groups of mice were killed at 26 weeks after treatment.

[4] = test system: cisplatin-induced lung tumors; conditions: administered as individual compounds; Carcinogenesis 21(5):915, 2000; Proc AACR 44 #4920; cited from earlier work
[5] = celecoxib 150 ppm in diet (low dose), EGCg 0.1% or Polyphenon E 0.17% in drinking water where combined
[6] = celecoxib 1,500 ppm in diet (high dose), EGCg 0.1% or Polyphenon E 0.17% in drinking water where combined
[7] = EGCg 0.1% (wt/vol) in drinking water, no celecoxib

Molecule | INCIDENCE [1, 5] | MULTIPLICITY [1, 5] | INCIDENCE [1, 6] | MULTIPLICITY [1, 6] | MULTIPLICITY (number of tumors/mouse, mean±SD in text) ([2]; high-dose celecoxib 1500 mg/kg diet, CDDP control 2.2) [tumors/mouse] | MULTIPLICITY (number of tumors/mouse, mean±SD in text) ([2]; high-dose celecoxib 1500 mg/kg diet, CDDP control 2.2, listed as Celecoxib) [tumors/mouse] | INCIDENCE ([2]; high-dose celecoxib 1500 mg/kg diet) [%] | INCIDENCE ([2]; high-dose celecoxib 1500 mg/kg diet, listed as Celecoxib) [%] | MULTIPLICITY (number of tumors/mouse, mean±SD in text) ([2]; low-dose celecoxib 150 mg/kg diet, CDDP control 2.2) [tumors/mouse] | MULTIPLICITY (number of tumors/mouse, mean±SD in text) ([2]; low-dose celecoxib 150 mg/kg diet, CDDP control 2.2, listed as Celecoxib) [tumors/mouse] | INCIDENCE ([2]; low-dose celecoxib 150 mg/kg diet) [%] | INCIDENCE ([2]; low-dose celecoxib 150 mg/kg diet, listed as Celecoxib) [%] | cisplatin-induced weight loss (in words) [3] | INCIDENCE [1, 7] | MULTIPLICITY [1, 7] | effect on tumor incidence (in words) ([1]; EGCg alone) | reduction of tumor multiplicity versus control ([1]; EGCg alone) | mice that developed tumors (tumor incidence) ([1]; EGCg alone, control 90%) [%] | inhibition of cisplatin-induced lung tumors (in words) [4]
Cc1ccc(-c2cc(C(F)(F)F)nn2-c2ccc(S(N)(=O)=O)cc2)cc1 [Cox, celecoxib] | 0.9 | 2.1 | 0.91 | 1.91 | 1.7 | 1.7±1.2 | 85.7 | 85.7 | 2.1 | 2.1±1.3 | 95 | 95 | significantly prevented |  |  |  |  |  | 
(−)-epigallocatechin gallate [EGCg] |  |  |  |  |  |  |  |  |  |  |  |  |  | 0.8 | 1.2 | could not significantly reduce tumor incidence | 45% and ~50% | 80 | partially inhibits
